Measurements from patent publication US10857119B2, “Composition containing monoacetyldiacylglycerol compound as active ingredient for inhibiting blood cancer or metastasis” (ENZYCHEM LIFESCIENCES CORPORATION, priority 2013, dated 2020).

Experiments:
rat IL-4 = test: IL-4 secretion by ELISA in RBL-2H3 cells; type: cell-based; settings: 10 μg/Ml EC-18
Method: The cells were treated with 0.1 μg/Ml to 10 μg/Ml EC-18 for 1 hour and antigen was processed. After the incubation for 18 hours at 37° C., the cell was removed to obtain a supernatant. The quantification of rat IL-4 which was present in the cell culture medium of RBL-2H3 cells was made by carrying out enzyme-linked immunosorbent assay (ELISA) according to the protocol indicated by the manufacturer using commercially purchasable monoclonal antibody (mAb) (BD Biosciences).

[1] = GLP toxicity test; cited from earlier work

Question: What does the source list for `CCCCC/C=C\C/C=C\CCCCCCCC(=O)OC(COC(C)=O)COC(=O)CCCCCCCCCCCCCCC` (centres unmarked) [EC-18, 1-palmitoyl-2-linoleoyl-3-acetylglycerol]?
Answer: inhibition at 10 µg/mL (rat IL-4): ≥ 60%; toxicity [1]: no-toxicity
